Laboratory results as given in US12098148B2, “Therapeutic compounds” (C4X Discovery Limited, priority 2018, dated 2024).
Read-outs that look alike come from different tables or passages of the source.

Experiments:
[1] = biological target: human KEAP1 (N-term, residues 321-609) (Homo sapiens, UniProt Q14145); assay: biochemical;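 also: fluorescence polarization competition assay of Kelch domain binding to NRF2, 12-point 1:3 dilution series from 10 µM, read after 1 h at room temperature, floor 10 nM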
[2] = test system: NQO1 mRNA in BEAS-2B cells; assay: Beas2B NQO1 mRNA cell based assay; set-up: species or system human; conditions: Homo sapiens, BEAS-2B
Procedure: Beas2B NQO1 mRNA Cell Based Assay
The up regulation of the NRF2 mediated gene NAD(P)H:quinone acceptor oxidoreductase 1 (NQO1) was measured using the following assay method: BEAS-2B cells (ATCC CRL-9609) were plated in 96-well clear plates at 20,000 cells/well in 75 μL of cell culture media and incubated overnight (37° C., 5% CO2). On day 2, 25 μL of compound or controls were added to the cells for 24 h. On day 3, the medium was aspirated from the plate and the Cells-to-CT™ 1-Step TaqMan® Kit (Ambion A25603) was used to perform expression analysis directly from cultured cells without RNA purification according to the manufacturer's instructions.
Briefly, cells were washed with ice cold PBS and 22.5 μL of room-temperature DNase/Lysis solution was added to the cells and incubated at room temperature for 5 minutes. To stop the reaction, 2.25 μL of stop solution was added to the cell lysate. The samples were diluted 1:5 using nuclease free water and 2.5 μL transferred into the PCR plate. Real-time PCR was performed using the C-1000 Thermal Cycler (Bio-Rad) using human beta actin as the internal control. The cDNA was amplified with a specific primer for NQO1 using the 1-step RT-PCR master mix (Ambion Cells-to-CT™ 1-Step TaqMan® Kit A25603). The primers/probes sets that were used for amplification of cDNA were obtained from TaqMan Gene Expression Assays (Applied Biosystems). The comparative CT (ΔΔCT) relative quantification method was used to calculate the relative mRNA level of the target gene NQO1 as described in the Applied Biosystems Chemistry Guide.

[3] = 24 h, 24 h compound treatment, increase in NQO1 mRNA vs vehicle (0.1% DMSO), read-out: EC50

human KEAP1 (N-term, residues 321-609), sequence (Q14145 321-609): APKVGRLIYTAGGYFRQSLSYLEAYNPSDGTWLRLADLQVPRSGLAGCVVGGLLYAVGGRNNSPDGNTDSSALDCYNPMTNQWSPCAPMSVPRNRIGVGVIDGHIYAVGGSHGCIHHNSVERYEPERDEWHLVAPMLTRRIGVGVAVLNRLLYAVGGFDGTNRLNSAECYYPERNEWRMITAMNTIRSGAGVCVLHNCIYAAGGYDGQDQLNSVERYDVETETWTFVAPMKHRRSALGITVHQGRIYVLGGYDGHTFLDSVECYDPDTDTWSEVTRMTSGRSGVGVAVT

Row | SMILES | IC50 [1] | EC50 [2, 3] | EC50 ([2]; NQO1 mRNA, on one test occasion, read-out: EC50 on one test occasion (footnote to Table 5))
1 | Cn1nnc2cc(COc3cccc4c3[C@@H](CN3C(=O)c5ccccc5C3=O)N(C(=O)[C@@H]3CCCC[C@@H]3C(=O)O)CC4)ccc21 [Example 8, (1S,2R)-2-((S)-1-((1,3-Dioxoisoindolin-2-yl)methyl)-8-((1-methyl-1H-benzo[d][1,2,3]triazol-5-yl)methoxy)-1,2,3,4-tetrahydroisoquinoline-2-carbonyl)cyclohexane-1-carboxylic acid] | 8.2 nM | 48 nM | –
2 | Cn1cc(COc2cccc3c2[C@@H](CN2C(=O)c4ccccc4C2=O)N(C(=O)[C@@H]2CCCC[C@@H]2C(=O)O)CC3)nn1 [Example 9, (1S,2R)-2-((S)-1-((1,3-dioxoisoindolin-2-yl)methyl)-8-((1-methyl-1H-1,2,3-triazol-4-yl)methoxy)-1,2,3,4-tetrahydroisoquinoline-2-carbonyl)cyclohexane-1-carboxylic acid] | 7.7 nM | 24 nM | –
3 | Cn1cnc2cc(COc3cccc4c3[C@@H](CN3C(=O)c5ccccc5C3=O)N(C(=O)[C@@H]3CCCC[C@@H]3C(=O)O)CC4)ccc21 [Example 10, (1S,2R)-2-((S)-1-((1,3-dioxoisoindolin-2-yl)methyl)-8-((1-methyl-1H-benzo[d]imidazol-5-yl)methoxy)-1,2,3,4-tetrahydroisoquinoline-2-carbonyl)cyclohexane-1-carboxylic acid] | 15 nM | 140 nM | > 500 nM
4 | CC(=O)N1CC[C@H](Oc2ccc(Br)c3c2[C@@H](CN2C(=O)c4ccccc4C2=O)N(C(=O)[C@@H]2CCCC[C@@H]2C(=O)O)CC3)C1 [Example 11, (1S,2R)-2-((S)-8-(((S)-1-Acetylpyrrolidin-3-yl)oxy)-5-bromo-1-((1,3-dioxoisoindolin-2-yl)methyl)-1,2,3,4-tetrahydroisoquinoline-2-carbonyl)cyclohexane-1-carboxylic acid] | 5.1 nM | 3.5 nM | –
5 | CC(=O)N1CC[C@H](Oc2ccc(Cl)c3c2[C@@H](CN2C(=O)c4ccccc4C2=O)N(C(=O)[C@@H]2CCCC[C@@H]2C(=O)O)CC3)C1 [Example 12, (1S,2R)-2-((S)-8-(((S)-1-Acetylpyrrolidin-3-yl)oxy)-5-chloro-1-((1,3-dioxoisoindolin-2-yl)methyl)-1,2,3,4-tetrahydroisoquinoline-2-carbonyl)cyclohexane-1-carboxylic acid] | 5.8 nM | 8.6 nM | –
6 | CC(=O)N1CC[C@H](Oc2c(Cl)cc(Cl)c3c2[C@@H](CN2C(=O)c4ccccc4C2=O)N(C(=O)[C@@H]2CCCC[C@@H]2C(=O)O)CC3)C1 [Example 13, (1S,2R)-2-((S)-8-(((S)-1-Acetylpyrrolidin-3-yl)oxy)-5,7-dichloro-1-((1,3-dioxoisoindolin-2-yl)methyl)-1,2,3,4-tetrahydroisoquinoline-2-carbonyl)cyclohexane-1-carboxylic acid] | 8.5 nM | 530 nM | –
7 | O=C(O)[C@H]1CCCC[C@H]1C(=O)N1CCc2c(Cl)ccc(O[C@H]3CCN(C(=O)c4cncs4)C3)c2[C@H]1CN1C(=O)c2ccccc2C1=O [Example 14, (1S,2R)-2-((S)-5-chloro-1-((1,3-dioxoisoindolin-2-yl)methyl)-8-(((S)-1-(thiazole-5-carbonyl)pyrrolidin-3-yl)oxy)-1,2,3,4-tetrahydroisoquinoline-2-carbonyl)cyclohexane-1-carboxylic acid] | 3.7 nM | 2.9 nM | –
8 | O=C(O)[C@H]1CCCC[C@H]1C(=O)N1CCc2cccc(O[C@H]3CCN(C(=O)c4cncs4)C3)c2[C@H]1CN1Cc2ccccc2C1=O [Example 15, (1S,2R)-2-((S)-1-((1-Oxoisoindolin-2-yl)methyl)-8-(((S)-1-(thiazole-5-carbonyl)pyrrolidin-3-yl)oxy)-1,2,3,4-tetrahroisoquinoline-2-carbonyl)cyclohexane-1-carboxylic acid] | 5.1 nM | 850 nM | –
9 | O=C(O)[C@H]1CCCC[C@H]1C(=O)N1CCc2c(Br)ccc(OCc3nnc4ccccn34)c2[C@H]1CN1Cc2ccccc2C1=O [Example 16, (1S,2R)-2-((S)-8-([1,2,4]triazolo[4,3-a]pyridin-3-ylmethoxy)-5-bromo-1-((1-oxoisoindolin-2-yl)methyl)-1,2,3,4-tetrahydroisoquinoline-2-carbonyl)cyclohexane-1-carboxylic acid] | 8.1 nM | 2 nM | –
10 | CC(C)n1cc(COc2cccc3c2[C@@H](CN2Cc4ccccc4C2=O)N(C(=O)[C@@H]2CCCC[C@@H]2C(=O)O)CC3)nn1 [Example 17, (1S,2R)-2-((S)-8-((1-Isopropyl-1H-1,2,3-triazol-4-yl)methoxy)-1-((1-oxoisoindolin-2-yl)methyl)-1,2,3,4-tetrahydroisoquinoline-2-carbonyl)cyclohexane-1-carboxylic acid] | 9.7 nM | 110 nM | –
11 | Cn1nnc2cc(COc3cccc4c3[C@@H](CN3Cc5ccccc5C3=O)N(C(=O)[C@@H]3CCCC[C@@H]3C(=O)O)CC4)ccc21 [Example 18, (1S,2R)-2-((S)-8-((1-methyl-1H-benzo[d][1,2,3]triazol-5-yl)methoxy)-1-((1-oxoisoindolin-2-yl)methyl)-1,2,3,4-tetrahydroisoquinoline-2-carbonyl)cyclohexane-1-carboxylic acid] | 10 nM | 73 nM | –
12 | CC(=O)N1CC[C@H](Oc2ccc(Br)c3c2[C@@H](CN2Cc4ccccc4C2=O)N(C(=O)[C@@H]2CCCC[C@@H]2C(=O)O)CC3)C1 [Example 19, (1S,2R)-2-((S)-8-(((S)-1-acetylpyrrolidin-3-yl)oxy)-5-bromo-1-((1-oxoisoindolin-2-yl)methyl)-1,2,3,4-tetrahydroisoquinoline-2-carbonyl)cyclohexane-1-carboxylic acid] | 9.7 nM | 130 nM | –
13 | Cc1ncc(C(=O)N2CC[C@H](Oc3ccc(Br)c4c3[C@@H](CN3Cc5ccccc5C3=O)N(C(=O)[C@@H]3CCCC[C@@H]3C(=O)O)CC4)C2)s1 [Example 20, (1S,2R)-2-((S)-5-Bromo-8-(((S)-1-(2-methylthiazole-5-carbonyl)-pyrrolidin-3-yl)oxy)-1-((1-oxoisoindolin-2-yl)methyl)-1,2,3,4-tetrahydroisoquinoline-2-carbonyl)cyclohexane-1-carboxylic acid] | 5.4 nM | 20 nM | –
14 | Cc1cnc(N2CC[C@H](Oc3ccc(Br)c4c3[C@@H](CN3Cc5ccccc5C3=O)N(C(=O)[C@@H]3CCCC[C@@H]3C(=O)O)CC4)C2)s1 [Example 21, (1S,2R)-2-((S)-5-bromo-8-(((S)-1-(5-methylthiazol-2-yl)pyrrolidin-3-yl)oxy)-1-((1-oxoisoindolin-2-yl)methyl)-1,2,3,4-tetrahydroisoquinoline-2-carbonyl)cyclohexane-1-carboxylic acid] | 4.7 nM | 7.9 nM | –
15 | Cc1cnnc(N2CC[C@H](Oc3ccc(Br)c4c3[C@@H](CN3Cc5ccccc5C3=O)N(C(=O)[C@@H]3CCCC[C@@H]3C(=O)O)CC4)C2)c1 [Example 22, (1S,2R)-2-((S)-5-bromo-8-(((S)-1-(5-methylpyridazin-3-yl)pyrrolidin-3-yl)oxy)-1-((1-oxoisoindolin-2-yl)methyl)-1,2,3,4-tetrahydroisoquinoline-2-carbonyl)cyclohexane-1-carboxylic acid] | 4.7 nM | 15 nM | –
16 | Cn1cnnc1COc1ccc(Br)c2c1[C@@H](CN1Cc3ccccc3C1=O)N(C(=O)[C@@H]1CCCC[C@@H]1C(=O)O)CC2 [Example 23, (1S,2R)-2-((S)-5-bromo-8-((4-methyl-4H-1,2,4-triazol-3-yl)methoxy)-1-((1-oxoisoindolin-2-yl)methyl)-1,2,3,4-tetrahydroisoquinoline-2-carbonyl)cyclohexane-1-carboxylic acid] | 10 nM | 33 nM | –
17 | Cc1nc(COc2ccc(Br)c3c2[C@@H](CN2Cc4ccccc4C2=O)N(C(=O)[C@@H]2CCCC[C@@H]2C(=O)O)CC3)no1 [Example 24, (1S,2R)-2-((S)-5-Bromo-8-((5-methyl-1,2,4-oxadiazol-3-yl)methoxy)-1-((1-oxoisoindolin-2-yl)methyl)-1,2,3,4-tetrahydroisoquinoline-2-carbonyl)cyclohexane-1-carboxylic acid] | 9.1 nM | 41 nM | –
18 | Cn1cnc(COc2ccc(Br)c3c2[C@@H](CN2Cc4ccccc4C2=O)N(C(=O)[C@@H]2CCCC[C@@H]2C(=O)O)CC3)c1 [Example 25, (1S,2R)-2-((S)-5-Bromo-8-((1-methyl-1H-imidazol-4-yl)methoxy)-1-((1-oxoisoindolin-2-yl)methyl)-1,2,3,4-tetrahydroisoquinoline-2-carbonyl)cyclohexane-1-carboxylic acid 2,2,2-trifluoroacetic acid] | 15 nM | 150 nM | –
19 | Cc1cc(COc2ccc(Br)c3c2[C@@H](CN2Cc4ccccc4C2=O)N(C(=O)[C@@H]2CCCC[C@@H]2C(=O)O)CC3)no1 [Example 26, (1S,2R)-2-((S)-5-Bromo-8-((5-methylisoxazol-3-yl)methoxy)-1-((1-oxoisoindolin-2-yl)methyl)-1,2,3,4-tetrahydroisoquinoline-2-carbonyl)cyclohexane-1-carboxylic acid] | 14 nM | 58 nM | –
